# Data reported in publication PMC3024946, “Hydroxyproline-containing collagen analogs trigger the release and activation of collagen-sequestered proMMP-2 by competition with prodomain-derived peptide P33-42” (Fibrogenesis & Tissue Repair, 2011).
# Experiments:
# ActMMP-2 [1] = assay: Solid-phase binding of [125I]-actMMP-2 to immobilized collagens/peptides (microwells); set-up: species or system human; details: ActMMP-2, 2 ng/well; coated wells; 4°C, 2 h; residual radioactivity; mean ± SD, at least five experiments in triplicate
# Method: (§1) Human recombinant proMMPs and in vitro activated MMPs were obtained from Invitek and were labeled with the [^125I]-Bolton-Hunter reagent according to the manufacturer's instructions (PerkinElmer, Rodgau, Germany) before the buffer was exchanged for phosphate-buffered saline (PBS) with 0.05% (vol/vol) Tween 20 by gel filtration as described previously. Specific radioactivity for [^125I]-MMPs was 3-9 × 10^4 cpm/ng. Precipitation with 10% (wt/vol) trichloroacetic acid and 200 μg of BSA recovered 96% to 100% of protein-bound radioactivity. Aliquots of labeled MMPs were frozen and stored at -80°C. The activity and integrity were checked by substrate gel zymography using SDS-PAGE and autoradiography with overnight exposure to Biomax MS film (Kodak, Stuttgart, Germany) (Figure 2A).
# (§2) Native human CI, CIII and CVI were purified from skin tissue and placenta. The CI single chains α1(I) and α2(I) were obtained and modified as described previously. To prepare defined fragments, 2 mg of α1(I) were dissolved in 1 ml of 70% (vol/vol) formic acid at room temperature, the tubes were flushed with nitrogen for 10 min, and then 2 mg of CB were added. After incubation for 4 h at 37°C, free CB was neutralized and the samples were lyophilized. The peptides CB3, CB6, CB7 and CB8 were separated from the reaction mixture by gel filtration followed by ion-exchange chromatography. The resulting peptides were characterized by amino acid analysis and SDS-PAGE [45, 46]. The CB peptides had the following melting temperatures: CB3, 23.9°C; CB6, 26.7°C; CB7, 28.1°C; and CB8, 28.0°C [31].
# (§3) The following collagen analogs and control peptides were synthesized as described previously: (GPO)10, H-Gly-Cys-Hyp-(Gly-Pro-Hyp)10-Gly-Cys-Hyp-Gly-NH2; (GPP)10, H-Gly-Cys-Pro-(Gly-Pro-Pro)10-Gly-Cys-Pro-Gly-NH2; and GAP, H-Gly-Ala-Cys-(Gly-Ala-Pro)5-Gly-Phe-Hyp-Gly-Glu-Arg-(Gly-Ala-Pro)5-NH2. Peptides (POG)10, (PPG)10 and (POG)5 were purchased from Peptide International (Louisville, KY, USA). Spontaneous triple-helix assembly was approved by polarimetry over a 10-cm path length at 1°C/min in 10 mM phosphate buffer, pH 7.4. At 5 mg/ml, midpoints of melting curves occurred at 82.3 ± 1.4°C for (GPO)10 and at 45.8 ± 0.8°C for (GPP)10. […] Graphs were calculated from the primary data using a custom fitting program written by D.A. Slatter (Department of Biochemistry, University of Cambridge, Cambridge, UK [48]) to model different possible transitions. All collagens, CI derivatives and peptides were stored in stock solutions of 2 mg/ml in 150 mM acetic acid at -20°C.
# (§4) ProMMP-2 and proMMP-9 or actMMP-2 and actMMP-9 were bound to nitrocellulose and polystyrene-immobilized native collagens, CI chains, CB peptides or structural analogs. Serial dilutions of collagens or CI derivatives in 150 mM acetic acid were dotted at 3 × 3 μl to a nitrocellulose membrane with high protein-binding capacity (GE Healthcare, Munich, Germany). Air-dried membranes were blocked with PBS and 0.3% (vol/vol) Tween 20 overnight at 4°C, washed three times, and incubated with 1 ng/ml [^125I]-pro- and actMMP-2 and pro- and actMMP-9 in PBS and 0.3% (vol/vol) Tween 20 for 2 h at room temperature. Membranes were washed again and air-dried, and bound MMP was monitored by autoradiography. In parallel, polystyrene microtiter plates (Dynex, Chantilly, VA, USA) were coated with collagen proteins and peptides. Here 2 μg/well or 200 ng/well proteins and peptides or BSA as control were immobilized in 100 μl of 50 mM ammonium bicarbonate buffer, pH 9.6, by overnight incubation at 4°C. Immobilization efficacies were 20% to 45% of total proteins. Wells were washed three times with PBS, and nonspecific binding sites were blocked with PBS and 0.05% (vol/vol) Tween 20 for 1 h at room temperature. All incubation steps were performed with 2 ng of [^125I]-MMPs at 4°C for 2 h. […]
# ActMMP-9 = assay: Solid-phase binding of [125I]-actMMP-9 to immobilized collagens/peptides (microwells); set-up: species or system human; details: ActMMP-9, 2 ng/well; coated wells; 4°C, 2 h; residual radioactivity; mean ± SD, at least five experiments in triplicate
# Method: as §1, §2, §3, §4
# ProMMP-2 [2] = assay: Solid-phase binding of [125I]-proMMP-2 to immobilized collagens/peptides (microwells); set-up: species or system human; details: ProMMP-2, 2 ng/well; coated wells; 4°C, 2 h; residual radioactivity; mean ± SD, at least five experiments in triplicate
# Method: as §1, §2, §3, §4
# ProMMP-9 = assay: Solid-phase binding of [125I]-proMMP-9 to immobilized collagens/peptides (microwells); set-up: species or system human; details: ProMMP-9, 2 ng/well; coated wells; 4°C, 2 h; residual radioactivity; mean ± SD, at least five experiments in triplicate
# Method: as §1, §2, §3, §4
# ProMMP-2 [3] = assay: Fluorogenic short-substrate assay, activation of proMMP-2; type: biochemical, human; details: proMMP-2; CI-coated wells
# Method: (§5) Enzymatic activities of MMPs were studied spectrofluorimetrically by cleavage of fluorogenic substrates in MMP activity buffer within 2 to 5 h. For gelatinases 800 nM MCA-Pro-Leu-Gly-Leu-Dnp-Dap-Ala-Arg-NH2 (λex/em 328/393 nm; Bachem, Bubendorf, Switzerland) or 10 μg/ml DQ-gelatine were used, according to the method described by Knight et al. for collagenases 800 nM MCA-Pro-Cha-Gly-Nva-His-Ala-Dpa-NH2 (λex/em 280/360 nm; Anaspec, San José, CA, USA). In some experiments, proMMP-2 was fully activated in the presence of 1 mM APMA prior to the kinetic measurements. A quantity of 50 ng pro- or actMMP-2 alone or mixed with 10- to 150-fold molar excesses of (GPO)10, GAP, P33-42 or mixtures of (GPO)10 and P33-42, were added to CI-coated, BSA-coated (1 μg/well both) or uncoated wells containing 150 μl of the respective substrate solution. The peptide P33-42 was purchased from the Institute of Biochemistry (Humboldt-University, Berlin, Germany). The influence of CI on MMP-2 enzymatic activity against the quenched fluorescent substrate could be excluded. Background subtraction (measurement without MMPs) was applied to all curves. All experiments were performed with a fluorescence microplate reader (Molecular Devices, Sunnyvale, CA, USA) and black 96-well microtiter plates with a clear bottom (Greiner bio-one, Frickenhausen, Germany).
# ActMMP-2 [4] = assay: Fluorogenic short-substrate assay, activity of actMMP-2; type: biochemical, human; details: CI-coated wells
# Method: as §5
# [5] = soluble human placenta-isolated triple-helical portion of CI; ref [30]; cited from earlier work
# Description: We tested α1(I) chains, which rapidly refold into triple-helical conformation in neutral buffers at room temperature, as well as CB-peptides of the α1(I) chain, where the length of the triple helix affects their thermal stability. Here the strength of binding of proMMP-2 and proMMP-9 to CB peptides directly correlated to the thermal stability of its tri ... || Native human CI, CIII and CVI were purified from skin tissue and placenta. The CI single chains α1(I) and α2(I) were obtained and modified as described previously. To prepare defined fragments, 2 mg of α1(I) were dissolved in 1 ml of 70% (vol/vol) formic acid at room temperature, the tubes were flushed with nitrogen for 10 min, and then 2 mg of CB were added. After incubation for 4 h at 37°C, free CB was neutralized and the samples were lyophilized. The peptides CB3, CB6, CB7 and CB8 were separated from the reaction mixture by gel filtration followed by ion-exchange chromatography. The ...
substance,measurement,setting,value
CI: native human collagen type I purified from skin tissue and placenta,Binding of [125I]-MMPs,ActMMP-2 [1],11.1 ± 1.8 % of maximum control
same,Binding of [125I]-MMPs,ActMMP-9,3.1 ± 0.5 % of maximum control
same,Binding of [125I]-MMPs,ProMMP-2 [2],24.0 ± 5.6 % of maximum control
same,Binding of [125I]-MMPs,ProMMP-9,30.9 ± 3.1 % of maximum control
same,effect of CI coating on activity,ProMMP-2 [3],strong reduction in activity
same,effect of CI coating on activity,ActMMP-2 [4],strong reduction in activity
same,melting temperature,[5],33.8 °C
